# In patent publication US20210220300A1 (Strongbridge Dublin Limited, priority 2019, published 2021):
# Read-outs that look alike come from different tables or passages of the source.
# Legend:
# [1] = biological target: T1, MATE1 (Homo sapiens, UniProt Q96FL8); settings: pH 8.5
# T1 sequence (Q96FL8 1-570): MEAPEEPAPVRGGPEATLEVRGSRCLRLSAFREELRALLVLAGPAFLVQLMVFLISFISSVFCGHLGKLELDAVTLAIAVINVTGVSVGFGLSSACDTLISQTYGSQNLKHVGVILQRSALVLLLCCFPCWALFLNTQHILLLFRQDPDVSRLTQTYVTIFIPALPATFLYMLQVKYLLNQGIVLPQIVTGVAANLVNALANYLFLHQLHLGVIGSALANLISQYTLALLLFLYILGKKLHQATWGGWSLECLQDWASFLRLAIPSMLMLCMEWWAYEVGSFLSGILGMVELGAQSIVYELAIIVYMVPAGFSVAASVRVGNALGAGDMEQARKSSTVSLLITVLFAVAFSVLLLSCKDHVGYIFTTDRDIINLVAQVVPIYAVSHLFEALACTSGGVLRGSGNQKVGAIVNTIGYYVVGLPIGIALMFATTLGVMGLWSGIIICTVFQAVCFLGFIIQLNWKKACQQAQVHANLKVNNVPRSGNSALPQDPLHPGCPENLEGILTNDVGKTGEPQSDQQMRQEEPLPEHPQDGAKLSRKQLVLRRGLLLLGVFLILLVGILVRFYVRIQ
# Description: (§1) [^14C]-Metformin (1 mM) was provided as a solid and was prepared in Hank's balanced salt solution (HBSS).
# (§2) Cells were plated onto standard 24-well tissue culture plates in cell culture medium 1 to 3 days before the experiment. MATE1 and MATE2-K and control cells were incubated with butyric acid (10 mM) for 24 hours before the experiment to inhibit suppression of the transporter.
# [2] = biological target: MATE2-K (Homo sapiens, UniProt Q86VL8); settings: pH 8.5
# Description: as §1, §2
# [3] = test system: BCRP; assay: BCRP inhibition: bidirectional transport of prazosin across MDCKII BCRP and control cells; settings: for % control: corrected efflux ratio, prazosin 1 μM
# Source text: MDCKII P-gp, MDCKII BCRP and control MDCKII cells were purchased from the Netherlands Cancer Institute.
# [4] = biological target: T2, OCT1 (Homo sapiens, UniProt O15245); settings: for Uptake (Average ± SD), Control / Uptake (Average ± SD), OCT1 / Background corrected uptake rate: human, pH 7.4
# T2 sequence (O15245 1-554): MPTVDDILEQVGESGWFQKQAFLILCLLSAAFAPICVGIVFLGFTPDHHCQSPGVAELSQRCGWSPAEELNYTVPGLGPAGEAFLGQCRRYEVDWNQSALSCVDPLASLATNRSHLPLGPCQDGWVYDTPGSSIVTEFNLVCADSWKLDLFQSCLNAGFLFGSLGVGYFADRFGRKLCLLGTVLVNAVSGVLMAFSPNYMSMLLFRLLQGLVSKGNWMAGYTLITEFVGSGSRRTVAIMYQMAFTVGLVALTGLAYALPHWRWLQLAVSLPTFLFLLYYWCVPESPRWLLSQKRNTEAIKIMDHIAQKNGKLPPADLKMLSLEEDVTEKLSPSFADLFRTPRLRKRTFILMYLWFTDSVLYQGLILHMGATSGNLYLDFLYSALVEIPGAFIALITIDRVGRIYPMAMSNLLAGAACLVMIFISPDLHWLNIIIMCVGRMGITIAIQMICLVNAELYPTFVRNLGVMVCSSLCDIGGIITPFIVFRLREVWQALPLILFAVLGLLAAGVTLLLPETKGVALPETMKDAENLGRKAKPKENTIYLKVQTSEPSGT
# Description: as §1, §2
# [5] = biological target: T3, P-gp (Homo sapiens, UniProt P08183)
# [6] = cited from earlier work
# [7] = cited from earlier work; remark: listed apart in the source
# [8] = biological target: T3, P-gp; assay: P-gp inhibition: bidirectional transport of digoxin across Caco-2 cells
# T3 sequence (P08183 whole entry): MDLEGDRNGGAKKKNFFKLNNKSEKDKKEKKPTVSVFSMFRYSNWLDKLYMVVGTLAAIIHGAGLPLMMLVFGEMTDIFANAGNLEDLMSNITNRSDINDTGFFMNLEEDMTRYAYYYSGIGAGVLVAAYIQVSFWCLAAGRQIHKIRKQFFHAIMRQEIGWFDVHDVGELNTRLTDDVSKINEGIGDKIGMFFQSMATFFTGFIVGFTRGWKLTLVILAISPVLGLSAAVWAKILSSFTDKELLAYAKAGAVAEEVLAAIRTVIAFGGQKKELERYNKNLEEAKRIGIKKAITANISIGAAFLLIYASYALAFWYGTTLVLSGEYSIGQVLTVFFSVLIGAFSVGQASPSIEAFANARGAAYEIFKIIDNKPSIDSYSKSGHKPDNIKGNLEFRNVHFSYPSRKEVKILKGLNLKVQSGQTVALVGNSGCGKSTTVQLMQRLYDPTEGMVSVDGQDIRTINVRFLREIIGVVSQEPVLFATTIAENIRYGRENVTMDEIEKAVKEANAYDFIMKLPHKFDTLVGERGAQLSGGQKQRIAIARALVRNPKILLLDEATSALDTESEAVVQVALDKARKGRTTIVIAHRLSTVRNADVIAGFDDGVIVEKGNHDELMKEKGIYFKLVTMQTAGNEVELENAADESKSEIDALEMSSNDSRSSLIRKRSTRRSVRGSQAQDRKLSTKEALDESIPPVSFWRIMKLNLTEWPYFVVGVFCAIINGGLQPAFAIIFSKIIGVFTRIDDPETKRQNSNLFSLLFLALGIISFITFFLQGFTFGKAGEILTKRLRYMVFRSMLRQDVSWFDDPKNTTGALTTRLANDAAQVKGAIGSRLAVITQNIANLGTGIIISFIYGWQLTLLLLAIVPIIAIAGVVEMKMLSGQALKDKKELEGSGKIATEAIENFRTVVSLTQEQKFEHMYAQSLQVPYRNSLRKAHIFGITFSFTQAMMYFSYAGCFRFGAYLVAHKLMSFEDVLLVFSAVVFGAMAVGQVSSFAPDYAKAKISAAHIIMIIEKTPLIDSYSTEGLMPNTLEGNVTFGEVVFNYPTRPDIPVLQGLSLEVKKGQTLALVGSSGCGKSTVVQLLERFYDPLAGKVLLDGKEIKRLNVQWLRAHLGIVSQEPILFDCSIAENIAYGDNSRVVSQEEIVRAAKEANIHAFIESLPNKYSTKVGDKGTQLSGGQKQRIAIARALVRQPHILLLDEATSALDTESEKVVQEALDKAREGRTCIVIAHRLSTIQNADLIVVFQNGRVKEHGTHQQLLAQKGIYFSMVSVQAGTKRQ
# Chain of MATE2-K (Q86VL8 1-566 isoform Q86VL8-3): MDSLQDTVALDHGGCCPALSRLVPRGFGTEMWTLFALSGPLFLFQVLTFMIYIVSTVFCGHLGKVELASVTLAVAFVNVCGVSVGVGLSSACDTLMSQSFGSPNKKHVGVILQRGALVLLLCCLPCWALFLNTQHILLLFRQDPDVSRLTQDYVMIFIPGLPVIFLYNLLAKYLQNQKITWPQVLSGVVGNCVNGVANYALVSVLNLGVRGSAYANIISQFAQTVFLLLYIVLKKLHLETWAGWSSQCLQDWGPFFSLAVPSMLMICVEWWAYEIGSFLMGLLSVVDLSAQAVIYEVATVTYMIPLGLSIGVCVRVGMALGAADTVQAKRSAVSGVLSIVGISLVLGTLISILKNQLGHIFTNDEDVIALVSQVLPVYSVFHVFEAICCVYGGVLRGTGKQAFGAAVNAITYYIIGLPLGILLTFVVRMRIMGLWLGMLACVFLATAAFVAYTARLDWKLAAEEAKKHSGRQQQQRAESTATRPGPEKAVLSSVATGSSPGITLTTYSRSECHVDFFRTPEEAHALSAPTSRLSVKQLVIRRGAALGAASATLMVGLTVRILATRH
smiles,measurement,setting,value
CN/C(=N/CCSCc1nc[nH]c1C)NC#N [Cimetidine],"Uptake (Average ± SD), Control",[1]; 10 μM,5.20 ± 0.63 pmol/mg protein
same,"Uptake (Average ± SD), MATE1",[1]; 10 μM,85.2 ± 7.8 pmol/mg protein
same,"Uptake (Average ± SD), Control",[2]; 300 μM,7.34 ± 0.20 pmol/mg protein
same,"Uptake (Average ± SD), MATE2-K",[2]; 300 μM,32.3 ± 11.7 pmol/mg protein
"NS(=O)(=O)c1cc(Cl)c(Cl)c(S(N)(=O)=O)c1 [Dichlorphenamide, 4,5-dichloro-1,3-benzenedisulfonamide]",% control,[3]; inhibitor 1000 μM,60.0%
same,Control cells Recovery (%) A:B,"[3]; dog, MDCK, 120 min, 1000 μM",84.7%
same,Control cells Recovery (%) B:A,"[3]; dog, MDCK, 120 min, 1000 μM",77.0%
same,MDCKII-BCRP cells Recovery (%) A:B,"[3]; human, 120 min, 1000 μM",93.0%
same,MDCKII-BCRP cells Recovery (%) B:A,"[3]; human, 120 min, 1000 μM",83.7%
same,"Uptake (Average ± SD), Control",[1]; 1 μM,6.66 ± 1.31 pmol/mg protein
same,"Uptake (Average ± SD), MATE1",[1]; 1 μM,436 ± 23 pmol/mg protein
same,"Uptake (Average ± SD), Control",[1]; 3 μM,6.75 ± 1.65 pmol/mg protein
same,"Uptake (Average ± SD), MATE1",[1]; 3 μM,401 ± 7 pmol/mg protein
same,"Uptake (Average ± SD), Control",[1]; 10 μM,7.43 ± 1.34 pmol/mg protein
same,"Uptake (Average ± SD), MATE1",[1]; 10 μM,406 ± 12 pmol/mg protein
same,"Uptake (Average ± SD), Control",[1]; 30 μM,6.79 ± 0.89 pmol/mg protein
same,"Uptake (Average ± SD), MATE1",[1]; 30 μM,432 ± 10 pmol/mg protein
same,"Uptake (Average ± SD), Control",[1]; 100 μM,7.52 ± 0.96 pmol/mg protein
same,"Uptake (Average ± SD), MATE1",[1]; 100 μM,421 ± 17 pmol/mg protein
same,"Uptake (Average ± SD), Control",[1]; 300 μM,5.56 ± 0.16 pmol/mg protein
same,"Uptake (Average ± SD), MATE1",[1]; 300 μM,398 ± 17 pmol/mg protein
same,"Uptake (Average ± SD), Control",[1]; 1000 μM,5.52 ± 0.21 pmol/mg protein
same,"Uptake (Average ± SD), MATE1",[1]; 1000 μM,379 ± 13 pmol/mg protein
same,"Uptake (Average ± SD), Control",[2]; 1 μM,9.21 ± 0.93 pmol/mg protein
same,"Uptake (Average ± SD), MATE2-K",[2]; 1 μM,149 ± 29 pmol/mg protein
same,"Uptake (Average ± SD), Control",[2]; 3 μM,9.44 ± 2.27 pmol/mg protein
same,"Uptake (Average ± SD), MATE2-K",[2]; 3 μM,159 ± 19 pmol/mg protein
same,"Uptake (Average ± SD), Control",[2]; 10 μM,8.28 ± 1.46 pmol/mg protein
same,"Uptake (Average ± SD), MATE2-K",[2]; 10 μM,113 ± 8 pmol/mg protein
same,"Uptake (Average ± SD), Control",[2]; 30 μM,8.51 ± 1.05 pmol/mg protein
same,"Uptake (Average ± SD), MATE2-K",[2]; 30 μM,124 ± 36 pmol/mg protein
same,"Uptake (Average ± SD), Control",[2]; 100 μM,9.21 ± 1.52 pmol/mg protein
same,"Uptake (Average ± SD), MATE2-K",[2]; 100 μM,137 ± 15 pmol/mg protein
same,"Uptake (Average ± SD), Control",[2]; 300 μM,8.86 ± 0.93 pmol/mg protein
same,"Uptake (Average ± SD), MATE2-K",[2]; 300 μM,166 ± 16 pmol/mg protein
same,"Uptake (Average ± SD), Control",[2]; 1000 μM,5.13 ± 0.40 pmol/mg protein
same,"Uptake (Average ± SD), MATE2-K",[2]; 1000 μM,106 ± 29 pmol/mg protein
same,% control,"[4]; [14C]-tetraethylammonium bromide 5 μM, inhibitor 10 μM",90.6%
same,"Uptake (Average ± SD), Control",[4]; 1 μM,4.28 ± 1.48 pmol/mg protein
same,"Uptake (Average ± SD), OCT1",[4]; 1 μM,121 ± 11 pmol/mg protein
same,"Uptake (Average ± SD), Control",[4]; 3 μM,4.44 ± 1.97 pmol/mg protein
same,"Uptake (Average ± SD), OCT1",[4]; 3 μM,125 ± 5 pmol/mg protein
same,"Uptake (Average ± SD), Control",[4]; 10 μM,4.28 ± 0.92 pmol/mg protein
same,"Uptake (Average ± SD), OCT1",[4]; 10 μM,111 ± 4 pmol/mg protein
same,"Uptake (Average ± SD), Control",[4]; 30 μM,3.88 ± 0.48 pmol/mg protein
same,"Uptake (Average ± SD), OCT1",[4]; 30 μM,122 ± 14 pmol/mg protein
same,"Uptake (Average ± SD), Control",[4]; 100 μM,4.12 ± 0.73 pmol/mg protein
same,"Uptake (Average ± SD), OCT1",[4]; 100 μM,128 ± 6 pmol/mg protein
same,Background corrected uptake rate,[4]; 300 μM,8.40 pmol/mg/min
same,"Uptake (Average ± SD), Control",[4]; 300 μM,3.88 ± 1.11 pmol/mg protein
same,"Uptake (Average ± SD), OCT1",[4]; 300 μM,130 ± 10 pmol/mg protein
same,Background corrected uptake rate,[4]; 1000 μM,5.00 pmol/mg/min
same,"Uptake (Average ± SD), Control",[4]; 1000 μM,2.99 ± 1.46 pmol/mg protein
same,"Uptake (Average ± SD), OCT1",[4]; 1000 μM,77.9 ± 3.0 pmol/mg protein
same,Papp A:B of digoxin (Average),[5]; Caco-2,0.337 (n = 2) × 10^−6 cm/sec
same,% control,"[5]; human, 120 min, 3 μM",74.0%
same,Solubility in dilute solutions of sodium carbonate and sodium hydroxide,[6],soluble
same,Storage stability,[7],at least 36 months
Cc1cccc(C)c1OCC(=O)N[C@@H](Cc1ccccc1)[C@@H](O)C[C@H](Cc1ccccc1)NC(=O)[C@H](C(C)C)N1CCCNC1=O [Lopinavir],% control,[3]; inhibitor 30 μM,0%
CCc1nc(N)nc(N)c1-c1ccc(Cl)cc1 [Pyrimethamine],Background corrected uptake rate,[1]; 0.1 μM,11.7 pmol/mg/min
same,"Uptake (Average ± SD), Control",[1]; 0.1 μM,4.24 ± 0.72 pmol/mg protein
same,"Uptake (Average ± SD), MATE1",[1]; 0.1 μM,62.8 ± 4.0 pmol/mg protein
same,Background corrected uptake rate,[2]; 0.3 μM,14.0 pmol/mg/min
same,"Uptake (Average ± SD), Control",[2]; 0.3 μM,5.59 ± 0.88 pmol/mg protein
same,"Uptake (Average ± SD), MATE2-K",[2]; 0.3 μM,75.6 ± 16.7 pmol/mg protein
C=C[C@H]1C[N@@]2CC[C@H]1C[C@@H]2[C@@H](O)c1ccnc2ccc(OC)cc12 [Quinidine],Background corrected uptake rate,[4]; 100 μM,1.64 pmol/mg/min
C/C=C/C[C@@H](C)C(=O)[C@H]1C(=O)N[C@@H](C(C)C)C(=O)N(C)CC(=O)N(C)[C@@H](CC(C)C)C(=O)N[C@@H](C(C)C)C(=O)N(C)[C@@H](CC(C)C)C(=O)N[C@@H](C)C(=O)N[C@H](C)C(=O)N(C)[C@@H](CC(C)C)C(=O)N(C)[C@@H](CC(C)C)C(=O)N(C)[C@@H](C(C)C)C(=O)N1C [Valspodar],Papp A:B of digoxin (Average ± SD),[8],9.12 ± 1.34 × 10^−6 cm/sec
same,Papp B:A of digoxin (Average ± SD),[8],10.0 ± 2.5 × 10^−6 cm/sec
